Laboratory results: patent publication US12202828B2, “Bicyclic heterocycle compounds and their uses in therapy” (ASTEX THERAPEUTICS LIMITED, priority 2013, dated 2025)
Where “and” joins values, the source holds several entries; their conditions need not be identical. Equal values may be shown once. Where a name gives a salt, the structure may show the parent alone.

Tests used:
[1] = target: T1, XIAP-Caspase-9 in HEK293-XIAP-Caspase-9 cells (Homo sapiens, UniProt P98170); test: HEK293-XIAP-Caspase-9 immunoprecipitation (IP) MSD assay; type: cell-based; details: compound 2 h at 37° C.; read-out: HEK293-X-C9 IP
T1 construct: FLAG; expressed in transfected cells
Protocol: Stable HEK293-XIAP-Caspase-9 cells were plated out into 96-well plates [200 μl/well at 1×10^6 cells/mL in cultured complete medium (DMEM+10% FBS+0.5 mg/mL Geneticin (Invitrogen)] and left overnight at 37° C. to recover. Compounds were added to duplicate wells in 0.1% DMSO for 2 h at 37° C. Cells were lysed in 50 μl 1×MSD lysis buffer (1% Triton X-100 in 20 mM Tris·Cl (pH 7.6), 150 mM NaCl including protease inhibitors) for 20 min rocking at room temperature. Streptavidin high bind MSD plate (L15SB-2) were coated with biotinylated anti-FLAG M2 antibody (Sigma F9291) at 25 μl/well with a 5 μg/mL dilution of antibody in PBS for 1 h, shaking; followed by blocking for 1 h with 150 μl 3% BSA/TBST. Cell lysate (25 μl) was added to the 96-well anti-FLAG coated MSD plate and placed on shaker for 4 h at room temperature. […] Plates were washed 4 times with 150 μl TBST, and 150 μl/well 1×MSD read buffer (R92TC-2) added before reading each plate.
EC50 values were determined from dose-response plots using nonlinear least-squares analysis.

hERG ion channel = target: T2, hERG ion channel (Homo sapiens, UniProt Q12809); test: Population Patch Clamp (PPC) hERG assay in CHO K1 cells; type: cell-based; details: for IC50: CHO K1 cells stably transfected with hERG
T2 construct: expressed in transfected cells; host or cells: CHO K1
Protocol: Inhibition of the hERG channel was measured by automated patch clamp assay in CHO K1 cells, stably transfected with the hERG ion channel. PPC measurements were performed using an IonWorks Quattro instrument (Molecular Devices Corporation, Union City, CA) using a 384 well PatchPlate (Molecular Devices Corporation) with 64 apertures per well. Each concentration of test compound was tested in duplicate wells. Amphotericin B was used to obtain electrical access to the cell interior at a final concentration of 200 μg/mL. Human ether-à-gogo related gene (hERG) currents were measured with a prepulse to +40 mV (2 s) from the holding potential of −80 mV, followed by a step to −50 mV (2 s) to elicit the deactivating tail currents, before returning to the holding potential for 1s. Compounds were incubated for 600s between the pre- and post-compound reads. The external recording solution used was 130 mM Na Gluconate, 20 mM NaCl, 4 mM KCl, 1 mM MgCl2, 1.8 mM CaCl2, 10 mM Hepes, 5 mM Glucose, pH to 7.3 with NaOH. All data were filtered for seal quality, seal drop, and current amplitude. The maximum current amplitude of the 3rd pulse tail current was calculated before (Pre) and after (Post) compound addition and the amount of block assessed by dividing the Post-compound current amplitude by the Pre-compound current amplitude.

T1 sequence (P98170 whole entry): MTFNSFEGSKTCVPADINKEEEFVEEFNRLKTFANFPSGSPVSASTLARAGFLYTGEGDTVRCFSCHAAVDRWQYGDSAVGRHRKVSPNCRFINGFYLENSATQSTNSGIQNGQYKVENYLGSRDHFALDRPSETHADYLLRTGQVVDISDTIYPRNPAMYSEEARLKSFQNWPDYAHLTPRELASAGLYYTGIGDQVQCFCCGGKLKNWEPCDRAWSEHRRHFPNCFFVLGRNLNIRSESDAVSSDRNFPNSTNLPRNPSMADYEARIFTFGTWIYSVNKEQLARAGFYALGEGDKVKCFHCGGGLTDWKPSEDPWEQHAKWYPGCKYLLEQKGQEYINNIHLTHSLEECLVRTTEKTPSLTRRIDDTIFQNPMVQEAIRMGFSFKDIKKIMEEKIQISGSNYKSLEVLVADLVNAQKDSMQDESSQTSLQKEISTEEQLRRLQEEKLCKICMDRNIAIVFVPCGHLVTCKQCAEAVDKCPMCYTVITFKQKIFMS
T2 sequence (Q12809 whole entry): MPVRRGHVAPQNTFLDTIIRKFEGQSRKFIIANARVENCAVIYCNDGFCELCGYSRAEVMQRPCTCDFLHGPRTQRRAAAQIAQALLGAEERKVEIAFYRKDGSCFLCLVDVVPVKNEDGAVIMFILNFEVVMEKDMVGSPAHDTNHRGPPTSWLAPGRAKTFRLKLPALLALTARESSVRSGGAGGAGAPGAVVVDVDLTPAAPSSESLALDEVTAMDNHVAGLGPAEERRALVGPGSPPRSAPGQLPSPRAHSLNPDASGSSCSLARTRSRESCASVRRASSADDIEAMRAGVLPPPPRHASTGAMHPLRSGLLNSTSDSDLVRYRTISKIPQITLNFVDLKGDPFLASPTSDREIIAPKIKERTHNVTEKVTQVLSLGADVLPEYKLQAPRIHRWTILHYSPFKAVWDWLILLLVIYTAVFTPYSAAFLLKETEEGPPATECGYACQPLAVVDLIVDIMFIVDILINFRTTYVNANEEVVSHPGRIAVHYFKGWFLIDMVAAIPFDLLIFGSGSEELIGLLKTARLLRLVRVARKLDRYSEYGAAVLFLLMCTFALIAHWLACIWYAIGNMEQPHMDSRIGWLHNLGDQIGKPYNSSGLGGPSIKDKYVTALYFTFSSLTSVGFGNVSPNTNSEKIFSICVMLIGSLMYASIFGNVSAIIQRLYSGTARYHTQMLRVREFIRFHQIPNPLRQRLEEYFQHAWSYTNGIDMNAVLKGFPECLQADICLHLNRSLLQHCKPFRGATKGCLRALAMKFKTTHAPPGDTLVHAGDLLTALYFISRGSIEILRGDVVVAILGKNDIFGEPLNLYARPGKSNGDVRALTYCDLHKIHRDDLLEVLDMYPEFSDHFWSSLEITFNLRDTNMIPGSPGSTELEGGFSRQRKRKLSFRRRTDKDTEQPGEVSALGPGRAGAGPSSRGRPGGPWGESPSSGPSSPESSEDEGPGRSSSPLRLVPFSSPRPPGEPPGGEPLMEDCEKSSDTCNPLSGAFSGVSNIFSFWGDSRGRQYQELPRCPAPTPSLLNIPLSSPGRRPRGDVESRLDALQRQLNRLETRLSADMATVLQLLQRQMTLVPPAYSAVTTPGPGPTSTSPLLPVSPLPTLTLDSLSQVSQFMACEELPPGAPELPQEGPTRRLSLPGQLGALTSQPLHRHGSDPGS

`C[C@@H]1CN(CC(=O)N2CC(C)(C)c3[nH]c(=O)c(Cc4ccc(F)cc4F)cc32)[C@@H](CN2[C@H](C)COC[C@H]2C)CN1` [Example 7, 6-[(2,4-Difluorophenyl)methyl]-1-{2-[(2R,5R)-2-{[(3R,5R)-3,5-dimethylmorpholin-4-yl]methyl}-5-methylpiperazin-1-yl]acetyl}-3,3-dimethyl-1H,2H,3H,4H,5H-pyrrolo[3,2-b]pyridin-5-one dihydrochloride] was tested. Which EC50 [1] did it give?
The EC50 was 1.2 nM.

What about the “hERG PPC (PI)” value (hERG ion channel; @ 100 μM) of the same compound?
Its value is 33% @ 100.

For `C[C@@H]1CN(CC(=O)N2CC(C)(C)c3nc(CO)c(Cc4ccccc4F)cc32)[C@@H](CN2CCOC[C@H]2C)CN1` [Example 4, 1-{6-[(2-Fluorophenyl)methyl]-5-(hydroxymethyl)-3,3-dimethyl-1H,2H,3H-pyrrolo[3,2-b]pyridin-1-yl}-2-[(2R,5R)-5-methyl-2-{[(3R)-3-methylmorpholin-4-yl]methyl}piperazin-1-yl] ethan-1-one dihydrochloride], which EC50 [1] is on record?
The EC50 was 2.6 nM.

What about the “hERG PPC (PI)” value (hERG ion channel; @ 30 μM) of the same compound?
The value was 47% @ 30.

What does the source list for `C[C@@H]1CN(CC(=O)N2CC(C)(C)c3[nH]c(=O)c(Cc4ccc(F)cc4)cc32)[C@@H](CN2CCOC[C@H]2C)CN1` [Example 5, 6-[(4-Fluorophenyl)methyl]-3,3-dimethyl-1-{2-[(2R,5R)-5-methyl-2-{[(3R)-3-methylmorpholin-4-yl]methyl}piperazin-1-yl]acetyl}-1H,2H,3H,4H,5H-pyrrolo[3,2-b]pyridin-5-one dihydrochloride]?
EC50 [1]: 5.3 nM; hERG PPC (PI) (hERG ion channel; @ 300 μM): 42% @ 300

`C[C@@H]1CN(CC(=O)N2CC(C)(C)c3c2cc(Cc2ccc(F)cc2)c(=O)n3C)[C@@H](CN2CCOC[C@H]2C)CN1` [Example 6, 6-[(4-Fluorophenyl)methyl]-3,3,4-trimethyl-1-{2-[(2R,5R)-5-methyl-2-{[(3R)-3-methylmorpholin-4-yl]methyl}piperazin-1-yl]acetyl}-1H,2H,3H,4H,5H-pyrrolo[3,2-b]pyridin-5-one dihydrochloride] was tested. Which EC50 [1] did it give?
The EC50 was 2 nM.

And the “hERG PPC (PI)” value (hERG ion channel; @ 250 μM)?
The value was 56% @ 250.

With `C[C@@H]1CN(CC(=O)N2CC(C)(C)c3cc(=O)n(Cc4ccc(F)cc4F)cc32)[C@@H](CN2[C@H](C)COC[C@H]2C)CN1` [Example 20, 6-[(2,4-Difluorophenyl)methyl]-1-{2-[(2R,5R)-2-{[(3R,5R)-3,5-dimethylmorpholin-4-yl]methyl}-5-methylpiperazin-1-yl]acetyl}-3,3-dimethyl-1H,2H,3H,5H,6H-pyrrolo[2,3-c]pyridin-5-one dihydrochloride] as the compound, how does the EC50 [1] read?
Its EC50 is 6.3 nM.

What about the “hERG PPC (PI)” value (hERG ion channel; @ 100 μM) of the same compound?
Its value is 44% @ 100.

Which EC50 [1] does the source give for `CCCCc1cc2c(n(N)c1=O)C(C)(C)CN2C(=O)CN1C[C@@H](C)NC[C@@H]1CN1[C@H](C)COC[C@H]1C` [Example 30, 4-Amino-6-butyl-1-{2-[(2R,5R)-2-{[(3R,5R)-3,5-dimethylmorpholin-4-yl]methyl}-5-methylpiperazin-1-yl]acetyl}-3,3-dimethyl-1H,2H,3H,4H,5H-pyrrolo[3,2-b]pyridin-5-one dihydrochloride] here?
Its EC50 is 1.2 nM and 1.4 nM.

And the IC50 (hERG ion channel)?
The IC50 was 230000 nM.

For `C[C@@H]1CN(CC(=O)N2CC(C)(C)c3nc(C(O)CO)c(Cc4ccc(F)cc4)cc32)[C@@H](CN2CCOC[C@H]2C)CN1` (single isomer, unassigned) [Example 13, 1-[5-((R or S)-1,2-Dihydroxyethyl)-6-[(4-fluorophenyl)methyl]-3,3-dimethyl-1H,2H,3H-pyrrolo [3,2-b]pyridin-1-yl]-2-[(2R,5R)-5-methyl-2-{[(3R)-3-methylmorpholin-4-yl]methyl}piperazin-1-yl] ethan-1-one dihydrochloride], which EC50 [1] is on record?
Its EC50 is 4.4 nM.

What about the “hERG PPC (PI)” value (hERG ion channel; @ 300 μM, dihydrochloride) of the same compound?
Its value is 46% @ 300.

What does the source list for `CCCCc1cc2c(nc1CO)C(C)(C)CN2C(=O)CN1C[C@@H](C)NC[C@@H]1CN1[C@H](C)COC[C@H]1C` [Example 34, 1-[6-Butyl-5-(hydroxymethyl)-3,3-dimethyl-1H,2H,3H-pyrrolo[3,2-b]pyridin-1-yl]-2-[(2R,5R)-2-{[(3R,5R)-3,5-dimethylmorpholin-4-yl]methyl}-5-methylpiperazin-1-yl] ethan-1-one dihydrochloride]?
EC50 [1]: 3.8 nM; IC50 (hERG ion channel): 55000 nM

`C[C@@H]1CN(CC(=O)N2CC(C)(C)c3nc(C(O)CO)c(Cc4ccc(F)cc4)cc32)[C@@H](CN2CCOC[C@H]2C)CN1` (single isomer, unassigned) [Example 14, 1-[5-((R or S)-1,2-Dihydroxyethyl)-6-[(4-fluorophenyl)methyl]-3,3-dimethyl-1H,2H,3H-pyrrolo [3,2-b]pyridin-1-yl]-2-[(2R,5R)-5-methyl-2-{[(3R)-3-methylmorpholin-4-yl]methyl}piperazin-1-yl] ethan-1-one dihydrochloride] was tested. Which EC50 [1] did it give?
The EC50 was 13 nM.

And the “hERG PPC (PI)” value (hERG ion channel; @ 300 μM, dihydrochloride)?
The value was 58% @ 300.

`C[C@@H]1CN(CC(=O)N2CC(C)(C)c3nc(CO)c(Cc4ccc(F)cc4F)cc32)[C@@H](CN2CCOC[C@H]2C)CN1` [Example 11, 1-{6-[(2,4-Difluorophenyl)methyl]-5-(hydroxymethyl)-3,3-dimethyl-1H,2H,3H-pyrrolo[3,2-b]pyridin-1-yl}-2-[(2R,5R)-5-methyl-2-{[(3R)-3-methylmorpholin-4-yl]methyl}piperazin-1-yl] ethan-1-one dihydrochloride] was tested. Which EC50 [1] did it give?
Its EC50 is 1.1 nM.

And the IC50 (hERG ion channel)?
Its IC50 is 51000 nM.

Which EC50 [1] does the source give for `C[C@@H]1CN(CC(=O)N2CC(C)(C)c3cc(=O)n(Cc4ccc(F)cc4)cc32)[C@@H](CN2CCOC[C@H]2C)CN1` [Example 17, 6-[(4-Fluorophenyl)methyl]-3,3-dimethyl-1-{2-[(2R,5R)-5-methyl-2-{[(3R)-3-methylmorpholin-4-yl]methyl}piperazin-1-yl]acetyl}-1H,2H,3H,5H,6H-pyrrolo[2,3-c]pyridin-5-one dihydrochloride] here?
Its EC50 is 28 nM.

What about the “hERG PPC (PI)” value (hERG ion channel; @ 300 μM) of the same compound?
Its value is 59% @ 300.

With `COCC(O)c1nc2c(cc1Cc1ccc(F)cc1)N(C(=O)CN1C[C@@H](C)NC[C@@H]1CN1CCOC[C@H]1C)CC2(C)C` (single isomer, unassigned) [Example 28, 1-{6-[(4-Fluorophenyl)methyl]-5-((R or S)-1-hydroxy-2-methoxyethyl)-3,3-dimethyl-1H,2H,3H-pyrrolo[3,2-b]pyridin-1-yl}-2-[(2R,5R)-5-methyl-2-{[(3R)-3-methylmorpholin-4-yl]methyl}piperazin-1-yl] ethan-1-one trihydrochloride] as the compound, how does the EC50 [1] read?
The EC50 was 4.4 nM.

What about the “hERG PPC (PI)” value (hERG ion channel; @ 125 μM) of the same compound?
Its value is 45% @ 125.

What does the source list for `C[C@@H]1CN(CC(=O)N2CC(C)(C)c3c2cc(Cc2ccc(F)cc2F)c(=O)n3C)[C@@H](CN2[C@H](C)COC[C@H]2C)CN1` [Example 12, 6-[(2,4-Difluorophenyl)methyl]-1-{2-[(2R,5R)-2-{[(3R,5R)-3,5-dimethylmorpholin-4-yl]methyl}-5-methylpiperazin-1-yl]acetyl}-3,3,4-trimethyl-1H,2H,3H,4H,5H-pyrrolo [3,2-b]pyridin-5-one dihydrochloride]?
EC50 [1]: 0.69 nM; hERG PPC (PI) (hERG ion channel; @ 100 μM): 41% @ 100

With `C[C@@H]1CN(CC(=O)N2CC(C)(C)c3c2cc(Cc2ccc(F)cc2F)c(=O)n3C)[C@@H](CN2C[C@H](C)OC[C@H]2C)CN1` [Example 25, 6-[(2,4-Difluorophenyl)methyl]-1-{2-[(2R,5R)-2-{[(2S,5R)-2,5-dimethylmorpholin-4-yl]methyl}-5-methylpiperazin-1-yl]acetyl}-3,3,4-trimethyl-1H,2H,3H,4H,5H-pyrrolo[3,2-b]pyridin-5-one dihydrochloride] as the compound, how does the EC50 [1] read?
Its EC50 is 2.7 nM.
